Key:
Assay type in all cases: in vivo
Set-up in all cases: scale not given here
slender amaranth (Am) [1] = test: Test Example 11: crop plant selectivity by upland field foliage treatment (corn), herbicidal effects; settings: dose 1.6 g ai/10a
How it was run: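 Corn with pale smartweed, slender amaranth, common lambsquarters and China jute sown in sand-filled pots and grown 2 weeks in a greenhouse before foliage treatment. Herbicidal effect and crop phytotoxicity scored on day 14 after treatment against a rating standard.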

wheat (Tr) = test: Test Example 5: crop plant selectivity by upland field soil treatment (wheat), phytotoxicity; settings: 21st day after application
How it was run: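 Wheat and weeds were sown in sand-filled pots and covered with soil, then treated by soil application. Plants grew in a greenhouse, and herbicidal effect and crop phytotoxicity were scored on a rating scale 21 days after application.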

China jute (Ab) [2] = test: Test Example 9: crop plant selectivity by upland field foliage treatment (wheat), herbicidal effects; settings: dose 1.6 g ai/10a, 14th day after treatment
How it was run: (§1)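 Wheat and weeds sown in sand-filled pots, grown 2 weeks in a greenhouse, then foliage-treated. Herbicidal effect and crop phytotoxicity were scored 14 days after treatment against a rating scale.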

slender amaranth (Am) [3] = test: as above; settings: dose 1.6 g ai/10a, 14th day after treatment
How it was run: as §1

[4] = system: common lambsquarters (Ch); test: as above; settings: dose 1.6 g ai/10a, 14th day after treatment
How it was run: as §1

pale smartweed (Po) [5] = test: as above; settings: dose 1.6 g ai/10a, 14th day after treatment
How it was run: as §1

green foxtail (Se) = test: Test Example 7: crop plant selectivity by upland field soil treatment (corn), herbicidal effects; settings: 21st day after application
How it was run: (§2)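 Corn and weed seeds were sown in sand-filled pots and covered with soil. After application, plants were grown in a greenhouse, and herbicidal effect and crop phytotoxicity were scored against fixed rating standards on day 21.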

China jute (Ab) [6] = test: as above; settings: 21st day after application
How it was run: as §2

slender amaranth (Am) [7] = test: as above; settings: 21st day after application
How it was run: as §2

[8] = system: common lambsquarters (Ch); test: as above; settings: 21st day after application
How it was run: as §2

pale smartweed (Po) [9] = test: as above; settings: 21st day after application
How it was run: as §2

[10] = upland field foliage treatment (corn test), 14th day after treatment

Structure (SMILES)	Herbicidal effects Am (slender amaranth (Am) [1]; [10])	Phytotoxicity Tr (wheat (Tr); dose 1.6 g ai/10a)	Phytotoxicity Tr (wheat (Tr); dose 6.3 g ai/10a)	Herbicidal effects Ab (China jute (Ab) [2])	Herbicidal effects Am (slender amaranth (Am) [3])	Herbicidal effects Ch [4]	Herbicidal effects Po (pale smartweed (Po) [5])	Herbicidal effects Se (green foxtail (Se); dose 1.6 g ai/10a)	Herbicidal effects Se (green foxtail (Se); dose 6.3 g ai/10a)	Herbicidal effects Ab (China jute (Ab) [6]; dose 1.6 g ai/10a)	Herbicidal effects Ab (China jute (Ab) [6]; dose 6.3 g ai/10a)	Herbicidal effects Am (slender amaranth (Am) [7]; dose 1.6 g ai/10a)	Herbicidal effects Am (slender amaranth (Am) [7]; dose 6.3 g ai/10a)	Herbicidal effects Ch ([8]; dose 1.6 g ai/10a)	Herbicidal effects Ch ([8]; dose 6.3 g ai/10a)	Herbicidal effects Po (pale smartweed (Po) [9]; dose 1.6 g ai/10a)	Herbicidal effects Po (pale smartweed (Po) [9]; dose 6.3 g ai/10a)	Herbicidal effects Am (slender amaranth (Am) [1]; slender amaranth, foliage treatment, evaluated on 14th day after treatment, index per Table 47)
C=CCOc1cc(-c2ccc(C(F)(F)F)n(C)c2=O)c(F)cc1Cl [1-16]	5	1	1	5	5	5	5	5	5	5	5	5	5	5	5	5	5	–
C#CCOc1cc(-c2ccc(C(F)(F)F)n(C)c2=O)c(F)cc1Cl [1-18]	5	2	–	–	–	–	–	5	5	5	5	5	5	5	5	5	5	–
Cn1c(C(F)(F)F)ccc(-c2cc(OCC#N)c(Cl)cc2F)c1=O [1-25]	5	–	–	5	5	5	5	–	5	–	5	–	5	–	5	–	5	–
C#CCOc1cc(-c2ccc(C(F)(F)F)n(C)c2=O)c(Cl)cc1Cl [1-30]	5	2	–	5	5	5	5	5	5	5	5	5	5	5	5	5	5	–
CCOC(=O)c1cc(-c2ccc(C(F)(F)F)n(C)c2=O)c(F)cc1Cl [1-65]	5	0	1	5	5	5	5	5	5	5	5	5	5	5	5	5	5	–
C#CCOc1cc(-c2ccc(C(F)(F)F)n(N)c2=O)c(F)cc1Cl [1-178]	5	1	–	5	5	5	5	5	–	5	–	5	–	5	–	5	–	–
COc1cc(-c2ccc(C(F)(F)F)n(N)c2=O)c(F)cc1Cl [1-179]	5	–	1	5	5	5	5	–	5	–	5	–	5	–	5	–	5	–
CCOCOc1cc(-c2ccc(C(F)(F)F)n(C)c2=O)c(F)cc1Cl [1-181]	5	–	1	5	5	5	5	–	–	–	–	–	–	–	–	–	–	–
C#CC(C)Oc1cc(Cl)cc(F)c1-c1ccc(C(F)(F)F)n(C)c1=O (stereo not shown) [1′-5]	5	1	1	5	5	5	5	4	5	5	5	5	5	5	5	5	5	–
C=CC(C)Oc1cc(-c2ccc(C(F)(F)F)n(C)c2=O)c(F)cc1Cl (stereo not shown) [Compound 1-182]	5	–	1	5	5	5	5	–	5	–	5	–	5	–	5	–	5	–
CCOC(=O)CON=Cc1cc(-c2ccc(C(F)(F)F)n(C)c2=O)c(F)cc1Cl [Compound 1-191]	5	–	1	5	5	5	5	–	5	–	5	–	5	–	5	–	5	–
C=CC(O)c1cc(-c2ccc(C(F)(F)F)n(C)c2=O)c(F)cc1Cl (stereo not shown) [Compound 1-197]	5	–	1	5	5	5	5	–	5	–	5	–	5	–	5	–	5	–
C#CCN1C(=O)COc2cc(Cl)c(-c3ccc(C(F)(F)F)n(C)c3=O)cc21 [Compound 2-25]	5	1	2	5	5	5	5	5	–	5	–	5	–	5	–	5	–	–
C#CCN1C(=O)COc2cc(F)c(-c3cn(C)c(C(F)(F)F)cc3=O)cc21 [Compound 7-1]	–	–	2	5	5	5	5	–	–	–	–	–	–	–	–	–	–	5
CON=Cc1cc(-c2ccc(C(F)(F)F)n(C)c2=O)c(F)cc1Cl [Compound No. 1-72, 5-(1-methyl-6-trifluoromethyl-2(1H)-pyridon-3-yl)-2-chloro-4-fluorobenzaldehydeoxime-O-methyl ether]	5	1	–	–	–	–	–	5	–	5	–	5	–	5	–	5	–	–
COCc1cc2c(-c3ccc(C(F)(F)F)n(C)c3=O)c(F)cc(Cl)c2o1 [Compound No. 4-4, 3-(7-chloro-5-fluoro-2-methoxymethylbenzofuran-4-yl)-1-methyl-6-trifluoromethyl-2-(1H)-pyridone]	5	2	–	–	–	–	–	5	5	5	5	5	5	5	5	5	5	–

— patent publication US6472348B1, “Pyridone derivatives and herbicides” (Kumiai Chemical Industry Co., Ltd., priority 1996, dated 2002)
